Consider 1 substance from patent US20260183408A1, “POLYPEPTIDE AND USE THEREOF” (SHENZHEN CHENYANG BIOLOGICAL TECHNOLOGY CO., LTD, priority 2022, published 2026).

For the experiment, the system named is SPS mice. As to the kind of experiment: Fear conditioning, safety learning and recall tests (freezing level). It is filed as in vivo. The conditions noted are these: treated for 1.5 h, 3 nM intraperitoneally, 100 μl/10 g mouse (FIG. 7 right). The protocol:
The SPS model was established with male Balb/c mice. The modified SPS protocol was used to comprise a series of stress exposure: 2 hours of restraint stress (inside a 50-mL plastic tube having several air holes), 3 min of rest, 12 min of forced swimming in a transparent glass tank (at about 24° C.), 15 min of rest (drying under a warming lamp), 20 min of predator (rat) odor exposure, followed by ether anesthesia (until the mice completely lost consciousness). Thereafter, the mice are transferred back to their cages with fresh bedding. The control mice were housed in groups and received no stress exposure. After the model establishment, all mice were raised undisturbed for one week.
The fear conditioning, safety learning, and recall tests were carried out in two contexts (the fear conditioning and safety learning tests were carried out in context A; and the recall test was carried out in context B). The shapes and smells provided in contexts A and B were different. Indoor floors were cleaned with 1% acetic acid or 75% ethanol prior to testing. […] After the experiment was completed, the freezing level was manually calculated based on the recorded video. The criterion for a freezing behavior is that if no movement other than normal breathing of a mouse was detected within 2 seconds, then the mouse was considered freezing. […]

For “TAT-D2R-KL: C-terminus of the KL (K226-L240) region of D2R fused to the transduction domain of HIV-1 Tat protein (SEQ ID NO: 5)”, the freezing level entry is “reduced”.
